Laboratory results as given in US11840686B2, “Modulation of prekallikrein (PKK) expression” (Ionis Pharmaceuticals, Inc., priority 2013, dated 2023).
Strand notation (5' to 3'): a small letter for the sugar, then the base; units joined by * are phosphorothioate-linked, units joined directly phosphodiester-linked; [ ] holds rarer units or linkages, { } end groups; capitals alone tell only the bases. e = 2'-O-(2-methoxyethyl) (MOE); k = constrained ethyl (cEt); [5mC] = 5-methylcytosine; d = 2'-deoxy (DNA)

System: human PKK mRNA
Test: Antisense inhibition of human PKK mRNA in HepaRG cells, 1,000 nM, MOE/deoxy/cEt oligonucleotides (Example 3)
Assay type: cell-based
Method in brief: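 HepaRG cells at 20,000 per well electroporated with 1,000 nM 16-mer MOE/cEt/deoxy gapmers (phosphorothioate, 5-methylcytosine). After about 24 h, PKK mRNA measured by qRT-PCR with primer probe set RTS3454, normalized to RIBOGREEN total RNA. Reported as percent inhibition versus untreated cells.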

[1] = Table 30, human PKK mRNA, HepaRG cells, 1,000 nM antisense oligonucleotide
[2] = Table 21 experiment, HepaRG cells, electroporation with 1,000 nM antisense oligonucleotide, approx. 24 hours, PKK mRNA by RT-PCR (RTS3454), relative to untreated control cells
[3] = HepaRG cells, electroporation with 1,000 nM antisense oligonucleotide, approximately 24 hours, primer probe set RTS3454, relative to untreated control cells, experiment of Table 23
[4] = HepaRG cells, electroporation with 1,000 nM antisense oligonucleotide, approx. 24 hours, PKK mRNA by RT-PCR (RTS3454), relative to untreated control cells, Table 26 experiment
[5] = HepaRG cells, 1,000 nM antisense oligonucleotide, Table 29
[6] = Table 20, HepaRG cells, electroporation with 1,000 nM antisense oligonucleotide, approximately 24 hours, PKK mRNA by RT-PCR (RTS3454), relative to untreated control cells
[7] = Table 22 experiment, HepaRG cells, electroporation with 1,000 nM antisense oligonucleotide, approx. 24 hours, PKK mRNA by RT-PCR (RTS3454), relative to untreated control cells
[8] = Table 19, HepaRG cells, electroporation with 1,000 nM antisense oligonucleotide, approximately 24 hours, PKK mRNA by RT-PCR (RTS3454), relative to untreated control cells
[9] = PKK mRNA, HepaRG cells, 1,000 nM antisense oligonucleotide, Table 31
[10] = HepaRG cells, electroporation with 1,000 nM antisense oligonucleotide, approx. 24 hours, PKK mRNA by RT-PCR (RTS3454), relative to untreated control cells, Table 25 experiment
[11] = Table 27, HepaRG cells, 1,000 nM antisense oligonucleotide, human PKK mRNA

## 548407 (e[5mC]*e[5mC]*kT*dA*dT*dA*dA*d[5mC]*dT*dG*d[5mC]*dT*dG*k[5mC]*kT*e[5mC]; antisense) [compound 548407]
[1]
  % inhibition: 24%

## 547777 (antisense eT*eT*kG*d[5mC]*dT*dT*d[5mC]*dT*dT*dG*dG*dA*dG*kG*kT*eG) [compound 547777]
[2]
  % inhibition: 69%

## 547921 (eT*eG*kA*dG*dA*dA*d[5mC]*d[5mC]*d[5mC]*dT*dG*dG*d[5mC]*kA*kA*e[5mC]; antisense) [compound 547921]
[3]
  % inhibition: 43%

## 548248 (antisense eT*eG*k[5mC]*dG*dA*dT*dT*dT*dT*d[5mC]*d[5mC]*dA*dT*kG*k[5mC]*eA) [compound 548248]
[4]
  % inhibition: 13%

## 548045 (eT*eT*kA*dT*dA*dG*dT*dT*dT*dT*dG*dG*dT*kG*kA*eA; antisense) [compound 548045]
HepaRG cells, electroporation with 1,000 nM antisense oligonucleotide, approximately 24 hours, primer probe set RTS3454, relative to untreated control cells, experiment of Table 24
  % inhibition: 0%

## 548567 (antisense eA*eG*kA*dT*d[5mC]*d[5mC]*dG*dG*dA*dA*dT*dA*dA*k[5mC]*k[5mC]*eA) [compound 548567]
[5]
  % inhibition: 67%

## 547919 (eG*eA*kA*d[5mC]*d[5mC]*d[5mC]*dT*dG*dG*d[5mC]*dA*dA*d[5mC]*kA*kT*e[5mC]; antisense) [compound 547919]
[6]
  % inhibition: 41%
[7]
  % inhibition: 73%

## 547821 (e[5mC]*eA*kA*dA*d[5mC]*d[5mC]*dT*dT*dT*dT*d[5mC]*dT*d[5mC]*k[5mC]*kA*eT; antisense) [compound 547821]
[2]
  % inhibition: 44%

## 548575 (eT*eG*kT*d[5mC]*d[5mC]*dT*dT*dT*dA*dA*dA*dG*dT*kA*kT*e[5mC]; antisense) [compound 548575]
[5]
  % inhibition: 18%

## 548437 (antisense eT*eA*kT*dA*dT*d[5mC]*dA*d[5mC]*dT*dG*dT*dA*d[5mC]*k[5mC]*kT*eG) [compound 548437]
[1]
  % inhibition: 74%

## 547940 (eT*eT*kT*d[5mC]*dT*dT*dT*dG*dT*dG*dA*d[5mC]*dT*k[5mC]*kG*eA; antisense) [compound 547940]
[3]
  % inhibition: 71%

## 548103 (antisense eT*eG*kT*dA*d[5mC]*dT*d[5mC]*dA*dG*d[5mC]*dG*dA*d[5mC]*kT*kT*eT) [compound 548103]
[8]
  % inhibition: 66%

## 547856 (antisense e[5mC]*eA*kT*dA*dT*d[5mC]*dA*dA*d[5mC]*dT*d[5mC]*d[5mC]*dT*kT*kT*eA) [compound 547856]
[6]
  % inhibition: 93%
[7]
  % inhibition: 51%

## 548534 (antisense e[5mC]*eA*kG*dA*dT*d[5mC]*d[5mC]*d[5mC]*dA*dA*dT*dT*d[5mC]*kT*kT*e[5mC]) [compound 548534]
Table 28, HepaRG cells, 1,000 nM antisense oligonucleotide, human PKK mRNA
  % inhibition: 22%

## 548295 (e[5mC]*eT*k[5mC]*dT*dG*dA*dT*dT*dG*dG*dG*dT*d[5mC]*kA*k[5mC]*e[5mC]; antisense) [compound 548295]
[4]
  % inhibition: 26%

## 548411 (antisense e[5mC]*eA*kG*dT*dA*dT*d[5mC]*dA*d[5mC]*dT*dG*dT*dA*k[5mC]*kT*eA) [compound 548411]
[1]
  % inhibition: 72%

## 548661 (antisense eA*e[5mC]*kG*dA*d[5mC]*d[5mC]*d[5mC]*dA*d[5mC]*dT*d[5mC]*d[5mC]*dA*kT*kG*eT) [compound 548661]
[9]
  % inhibition: 18%

## 547986 (antisense e[5mC]*eA*kG*d[5mC]*dG*dA*dA*dT*d[5mC]*dA*dT*d[5mC]*dT*kT*kT*eG) [compound 547986]
[3]
  % inhibition: 63%

## 548159 (e[5mC]*eG*k[5mC]*dA*dT*dT*dG*dT*d[5mC]*dA*dG*d[5mC]*d[5mC]*k[5mC]*k[5mC]*eT; antisense) [compound 548159]
[10]
  % inhibition: 59%

## 548300 (eG*e[5mC]*k[5mC]*d[5mC]*dA*dT*dG*dG*dT*dG*dA*dA*dT*k[5mC]*kT*eG; antisense) [compound 548300]
[4]
  % inhibition: 53%

## 548660 (antisense eA*eT*kG*d[5mC]*dT*dT*dA*d[5mC]*d[5mC]*dT*dT*dT*d[5mC]*kT*k[5mC]*e[5mC]) [compound 548660]
[9]
  % inhibition: 0%

## 547924 (eG*eT*k[5mC]*d[5mC]*dG*dA*d[5mC]*dA*d[5mC]*dA*d[5mC]*dA*dA*kA*kA*eG; antisense) [compound 547924]
[3]
  % inhibition: 53%

## 548673 (antisense eG*eA*k[5mC]*d[5mC]*dT*dT*dG*d[5mC]*dT*dT*d[5mC]*d[5mC]*dA*kT*kG*eT) [compound 548673]
[9]
  % inhibition: 40%

## 547797 (antisense eA*eG*k[5mC]*dT*dA*d[5mC]*dA*dT*d[5mC]*d[5mC]*d[5mC]*d[5mC]*dA*k[5mC]*k[5mC]*eT) [compound 547797]
[2]
  % inhibition: 33%

## 547982 (antisense eA*eA*kT*d[5mC]*dA*dT*d[5mC]*dT*dT*dT*dG*dT*dG*k[5mC]*kA*eA) [compound 547982]
[3]
  % inhibition: 54%

## 548183 (e[5mC]*eA*kG*dT*d[5mC]*dA*dT*dG*dG*dA*dG*dA*dT*k[5mC]*kT*e[5mC]; antisense) [compound 548183]
[10]
  % inhibition: 43%

## 548672 (antisense e[5mC]*e[5mC]*k[5mC]*d[5mC]*d[5mC]*d[5mC]*dA*dG*dA*dA*dA*dT*d[5mC]*k[5mC]*k[5mC]*eA) [compound 548672]
[9]
  % inhibition: 40%

## 548123 (antisense eA*eG*kA*d[5mC]*dT*d[5mC]*dT*dG*dG*dA*d[5mC]*dT*dG*k[5mC]*kT*eT) [compound 548123]
[8]
  % inhibition: 49%

## 548223 (eT*eA*kG*dA*d[5mC]*d[5mC]*d[5mC]*dA*dG*dA*dA*dT*d[5mC]*kA*kT*eG; antisense) [compound 548223]
[10]
  % inhibition: 50%

## 548548 (antisense eG*e[5mC]*kT*dT*dG*dT*dA*dG*dA*dA*dG*dG*dG*kA*kT*eT) [compound 548548]
[5]
  % inhibition: 54%

## 548366 (antisense eA*eG*k[5mC]*dA*dA*dG*d[5mC]*dT*dA*dA*dG*dT*dG*kA*kG*eT) [compound 548366]
[11]
  % inhibition: 5%

## 548283 (antisense eG*eG*k[5mC]*dT*dT*dA*dT*dG*d[5mC]*dT*d[5mC]*d[5mC]*dT*kT*k[5mC]*eT) [compound 548283]
[4]
  % inhibition: 56%

## 548645 (antisense e[5mC]*e[5mC]*kA*dG*d[5mC]*dG*d[5mC]*dA*dA*dT*dT*d[5mC]*dT*kG*k[5mC]*eT) [compound 548645]
[9]
  % inhibition: 8%

## 548403 (eG*eA*kG*dT*dA*d[5mC]*dA*dT*dT*dG*dG*dG*d[5mC]*k[5mC]*k[5mC]*eA; antisense) [compound 548403]
[1]
  % inhibition: 25%

## 548355 (antisense eG*e[5mC]*kA*dT*d[5mC]*d[5mC]*dT*d[5mC]*d[5mC]*d[5mC]*dT*dA*dG*kT*kT*eG) [compound 548355]
[11]
  % inhibition: 47%

## 548139 (eA*eG*kA*dT*dG*dA*dG*dG*dA*d[5mC]*d[5mC]*d[5mC]*d[5mC]*k[5mC]*k[5mC]*eA; antisense) [compound 548139]
[8]
  % inhibition: 56%
